Source: patent US3966715A, “Herbicidal agents” (Bayer Aktiengesellschaft, priority 1966, dated 1976)

Experiments:
Oats = test: Post-emergence test, oats; assay type: in vivo; conditions: three weeks
Experimental: (§1) Solvent: 5 parts by weight acetone
(§2) 1 part by weight benzyloxypolyglycol ether
(§3) To produce a suitable preparation of the particular active compound, 1 part by weight of such active compound is mixed with the stated amount of solvent, the stated amount of emulsifier is then added and the resulting concentrate is thereafter diluted with water to the desired final concentration.
(§4) Test plants which have a height of about 5--15 cm. are sprayed with the preparation of the given active compound until just dew moist. After three weeks, the degree of damage to the plants is determined and characterized by the values 0-5, which have the following meaning:
(§5) The procedure of Example 2 is repeated, and the particular active compounds tested, and amounts applied, and the results obtained can be seen from the following Table 2E: […]

dwarf beans = test: Defoliant test; assay type: in vivo; conditions: 0.05% active compound
Experimental: There is prepared, in the same manner as described in Example 1, an active compound preparation which contains 0.05% of
(1a") 3-methylthio-4-amino-6-phenyl-1,2,4-triazine-5-one.
A field of dwarf beans is sprayed with this preparation of the active compound so that the dwarf beans themselves are only just dripping wet.

Echinochloa = test: Pre-emergence test, Echinochloa; assay type: in vivo; conditions: 1.25 kg/hectare, three weeks
Experimental: as §1, §2, §3
(§6) Seeds of the test plants are sown in normal soil and, after 24 hours, watered with the preparation of the given active compound. It is expedient to keep constant the amount of water per unit area. The concentration of the particular active compound in the preparation is of no importance, only the amount of active compound applied per unit area being decisive. After three weeks, the degree of damage to the test plants is determined and characterized by the values 0-5, which have the following meaning:
(§7) The procedure of Example 1 is repeated, and the particular active compounds tested, the amounts applied, and the results obtained can be seen from the following Table 1D: […]

soybeans = test: Pre-emergence selectivity, soybeans; assay type: in vivo
test plants = test: Post-emergence test, overall; assay type: in vivo
Experimental: as §1, §2, §3, §4, §5

Wheat [1] = test: Post-emergence test, wheat; assay type: in vivo; conditions: 2.4 Kg/hectare, three weeks
Experimental: as §1, §2, §3, §4, §5

Wheat [2] = test: Pre-emergence test, wheat; assay type: in vivo; conditions: 1.25 kg/hectare, three weeks
Experimental: as §1, §2, §3, §6, §7

[3] = tested on: corn, potatoes, millet and peanuts; test: Use in growing corn, potatoes, millet and peanuts; assay type: in vivo; conditions: 0.3-2 kg/hectare
nematoeds = test: Nematocidal activity on the soil; assay type: in vivo; conditions: 1 Kg/hectare
Alternaria = test: Fungicidal activity; assay type: in vivo; conditions: particularly against Alternaria
rats = test: Oral toxicity in rats; conditions: in words
Oral toxicity in rats = conditions: rat, in vivo, po
plants and weeds = test: General herbicidal activity; assay type: in vivo; conditions: compared with compounds 221, 222, 223
cotton and tomatoes = test: Pre-emergence selectivity, cotton and tomatoes; assay type: in vivo; conditions: pre-emergence application

In the case of `CSc1nnc(-c2ccccc2)c(=O)n1N` [Compound 1a, 3-methylthio-4-amino-6-phenyl-1,2,4-triazine-5-one], the “degree of damage, Oats” value (Oats; 1.2 Kg/hectare) is reported as 4-5, the “degree of damage, Oats” value (Oats; 2.4 Kg/hectare) is reported as 4-5 and the “harvesting of the beans” value (dwarf beans) is reported as “quite considerably facilitated”. The “drying up of leaves” value (dwarf beans; after 8 days) was “completely dried up” and the “degree of damage, Echinochloa” value (Echinochloa) was 4-5.
With `CSc1nnc(C(C)(C)C)c(=O)n1N=C1CCCCC1` [Compound 221, 3-methylthio-4-(cyclohexylidene-amino)-6-tert.-butyl-1,2,4-triazine-5-one] the selectivity (soybeans) was “selective for soybeans”, the general herbicidal activity (test plants) was “very good general herbicidal activity” and the “degree of damage, Wheat” value (Wheat [1]) was 4-5. The “degree of damage, Wheat” value (Wheat [2]) was 4-5.
For `CSc1nnc(C(C)(C)C)c(=O)n1N=Cc1ccccc1` [Compound 236], the “effectiveness in growing crops” value [3] was “effective in growing corn, potatoes, millet and peanuts”, the killing of nematodes (nematoeds) was “kills nematoeds” and the fungicidal activity (Alternaria) was “exhibits fungicidal activity, particularly against Alternaria”. For the same molecule, the toxicity (rats) was “quite low”, the LD50 (Oral toxicity in rats) was 1000 mg/kg and the general properties (plants and weeds) was “same general properties”. The selectivity (cotton and tomatoes) was “selective as to cotton and tomatoes”.
